This is an account of results in US20130289047A1, “HETEROARYLTHIO DERIVATIVES AND ANALOGUES” (EPIOMED THERAPEUTICS, INC., priority 2010, published 2013).

One test addresses T1, 5HT1A receptor (Homo sapiens, UniProt P08908).
T1 sequence (P08908 1-422): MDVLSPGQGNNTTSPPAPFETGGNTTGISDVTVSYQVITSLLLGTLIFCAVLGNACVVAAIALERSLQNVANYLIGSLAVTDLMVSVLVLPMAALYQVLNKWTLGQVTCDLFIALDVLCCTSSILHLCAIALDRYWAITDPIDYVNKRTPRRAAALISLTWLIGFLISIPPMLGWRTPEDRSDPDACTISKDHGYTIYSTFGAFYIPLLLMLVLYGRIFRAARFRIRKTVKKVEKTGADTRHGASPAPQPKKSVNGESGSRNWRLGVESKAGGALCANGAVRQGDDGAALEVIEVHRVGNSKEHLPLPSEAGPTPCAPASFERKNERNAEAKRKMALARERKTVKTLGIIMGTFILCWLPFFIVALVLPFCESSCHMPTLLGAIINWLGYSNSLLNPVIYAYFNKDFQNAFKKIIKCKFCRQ
In words: Competitive receptor binding, 5HT1A (radiolabeled OH-DPAT). Conditions: for inhibition at 0.1 µM: 100 nM, read-out: Percent inhibition of receptor binding at 100 nM, 5HT1A Receptor Binding. The procedure: (§1) A set of compounds were tested for their ability to inhibit binding of a binding ligand to the 5HT1A, 5HT1D, and 5HT7 receptors in a competitive assay. The tested compounds were placed in the assay with either radiolabeled OH-DPAT (which binds the 5HT1A receptor), radiolabeled serotonin (which binds the 5HT1D receptor), or radiolabeled LSD (lysergic acid diethylamide, which binds the 5HT7 receptor).

The target of another test is 5HT1D receptor (Homo sapiens, UniProt P28221). In words: Competitive receptor binding, 5HT1D (radiolabeled serotonin). To be noted: for inhibition at 0.1 µM: 100 nM, read-out: Percent inhibition of receptor binding at 100 nM, 5HT1D Receptor Binding. The method, then: as §1
5HT1D receptor, sequence (P28221 whole entry): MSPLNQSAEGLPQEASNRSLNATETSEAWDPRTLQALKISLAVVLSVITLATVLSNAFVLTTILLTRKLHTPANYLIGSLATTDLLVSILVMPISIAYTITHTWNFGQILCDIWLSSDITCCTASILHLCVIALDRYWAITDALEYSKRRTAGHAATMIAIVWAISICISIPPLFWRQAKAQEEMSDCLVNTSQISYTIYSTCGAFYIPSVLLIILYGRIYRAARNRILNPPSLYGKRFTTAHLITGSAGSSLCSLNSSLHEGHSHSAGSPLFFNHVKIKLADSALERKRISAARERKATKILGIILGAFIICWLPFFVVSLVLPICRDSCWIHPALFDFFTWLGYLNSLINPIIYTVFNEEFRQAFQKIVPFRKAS
The target of the next test is 5HT7 receptor (Homo sapiens, UniProt P34969). Nature of the test: Competitive receptor binding, 5HT7 (radiolabeled LSD). Conditions: for inhibition at 0.1 µM: 100 nM, read-out: Percent inhibition of receptor binding at 100 nM, 5HT7 Receptor Binding. The method, then: as §1
5HT7 receptor, sequence (P34969 whole entry): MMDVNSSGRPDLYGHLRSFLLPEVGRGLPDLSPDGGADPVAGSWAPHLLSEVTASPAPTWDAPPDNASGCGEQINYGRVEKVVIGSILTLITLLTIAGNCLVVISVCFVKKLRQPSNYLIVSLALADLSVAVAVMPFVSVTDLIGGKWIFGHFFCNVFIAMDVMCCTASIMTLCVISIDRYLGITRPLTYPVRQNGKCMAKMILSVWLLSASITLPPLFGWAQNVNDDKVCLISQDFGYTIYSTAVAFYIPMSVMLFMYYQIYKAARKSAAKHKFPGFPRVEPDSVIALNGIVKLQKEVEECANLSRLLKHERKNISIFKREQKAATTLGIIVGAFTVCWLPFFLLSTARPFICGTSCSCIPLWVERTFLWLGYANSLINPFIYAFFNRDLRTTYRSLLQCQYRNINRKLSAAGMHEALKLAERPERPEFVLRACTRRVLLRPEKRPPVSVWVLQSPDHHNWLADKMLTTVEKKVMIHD
Test [1] has as its system C57 male mice. Nature of the test: Condition Avoidance Responding (CAR, active avoidance) model, antipsychotic activity. It counts as in vivo. Conditions: 10 mg/kg subcutaneously 30 minutes before test session; C57 male mice tested 24 hours after training; FIG. 1. The procedure: The Condition Avoidance Responding (CAR, active avoidance) model is used as a test for antipsychotic activity. The disruption of avoidance (increased latency) without disruption of escape (extrapyramidal motor function) is a clinical predictor of compounds with antipsychotic activity. The compound of example 10 above (1-[3-(5-Pyridin-4-yl-[1,3,4]oxadiazol-2-ylsulfanyl)propyl]-4-(3-chlorophenyl)piperazine) was evaluated in this model as follows.
(§2) Training of animals (mice) consisted of 20 trials with variable inter-trial intervals (trained to 80% Avoidance Criteria). After a one-minute acclimation period, the house light and an acoustic 90 dB tone (conditioned stimuli) were presented. A response (crossing to a dark compartment) within 5 seconds ended the trial and the trial was recorded as avoidance response (CAR). […] To avoid shock, animals learn to move from the lighted side of the chamber to the dark side when the cue is presented (avoidance) or moved when the shock is administered (escape). Vehicle or test compounds were administered subcutaneously 30 minutes before the test session.
(§3) C57 male mice were tested 24 hours after being trained as described above.

Test [2] has as its system C57 male mice. Nature of the test: Condition Avoidance Responding (CAR, active avoidance) model, memory. Conditions: 10 mg/kg subcutaneously 30 minutes before test session; C57 male mice tested 24 hours after training; FIG. 2. It counts as in vivo.
Excerpt: The Condition Avoidance Responding (CAR, active avoidance) model, although primarily a test for detecting anti-psychotic activity, includes an element of training and learning (acquisition of memory), and thus can also be used as a model for testing a compound's effects on learning (acquisition of information) and memory (retention of information). A decrease in the latency of an animal's response indicates an enhancement of an animal's memory of the stimulus. The compound of example 12 above (1-[3-(1-Phenyl-1H-tetrazol-5-ylsulfanyl)propyl]-4-(3-chlorophenyl)piperazine) was evaluated in this model as follows.
as §2, §3

`c1cc(-c2nnc(SCCCN3CCN(c4nccc5occc45)CC3)o2)ccn1` [Example 42, 4-{4-[3-(5-Pyridin-4-yl-[1,3,4]oxadiazol-2-sulfanyl)propyl]piperazin-1-yl}furo[3,2-c]pyridine]: the “Percent inhibition of receptor binding at 100 nM, 5HT1A Receptor Binding” value at 5HT1A receptor is on record as 96%. Moreover, the “Percent inhibition of receptor binding at 100 nM, 5HT1D Receptor Binding” value on 5HT1D receptor amounted to 65%. Also, the “Percent inhibition of receptor binding at 100 nM, 5HT7 Receptor Binding” value on 5HT7 receptor came out at 21%.
In the case of `Cn1ccnc1SCCN1CCN(c2cccc(C(F)(F)F)c2)CC1` [Example 1, 1-[2-(1-Methyl-1H-imidazol-2-ylsulfanyl)ethyl]-4-(3-trifluoromethylphenyl)piperazine], the results for the inhibition at 0.1 µM at 5HT1A receptor, on 5HT1D receptor and on 5HT7 receptor were 87%, 52% and 63%, respectively.
In the same order, the values of `Cn1ccnc1SCCCN1CCN(c2cccc(Cl)c2)CC1` [Example 8, 1-[3-(1-Methyl-1H-imidazol-2-ylsulfanyl)propyl]-4-(3-chlorophenyl)piperazine] are 94%, 50% and 82%.
In the same order, the values of `c1ccc(-n2nnnc2SCCCN2CCN(c3nccc4occc34)CC2)cc1` [Example 40, 4-{4-[3-(1-Phenyl-1H-tetrazol-5-ylsulfanyl)propyl]piperazin-1-yl}furo[3,2-c]pyridine] are 97%, 38% and 67%.
For the compound `Cn1ccnc1SCCCN1CCN(c2nccc3occc23)CC1` [Example 38, 4-{4-[3-(1-Methyl-1H-imidazol-2-ylsulfanyl)propyl]piperazin-1-yl}furo[3,2-c]pyridine], the inhibition at 0.1 µM on 5HT1A receptor was 71%; at 5HT7 receptor it was 81%.
Turning to `FC(F)(F)c1cccc(N2CCN(CCSc3nnc(-c4ccncc4)o3)CC2)c1` [Example 3, 1-[2-(5-Pyridin-4-yl-[1,3,4]oxadiazol-2-ylsulfanyl)ethyl]-4-(3-trifluoromethylphenyl)piperazine], the inhibition at 0.1 µM at 5HT1A receptor amounted to 92%; at 5HT1D receptor, 10%; on 5HT7 receptor, 25%.
For the compound `Clc1cccc(N2CCN(CCCSc3nnc(-c4ccncc4)o3)CC2)c1` [Example 10, 1-[3-(5-Pyridin-4-yl-[1,3,4]oxadiazol-2-ylsulfanyl)propyl]-4-(3-chlorophenyl)piperazine], the inhibition at 0.1 µM at 5HT1A receptor turned out to be 97%; at 5HT1D receptor it was 51%; at 5HT7 receptor, 8%. Moreover, in the test on C57 male mice [1], the “latency in CAR (antipsychotic activity)” value is given as “statistically significant increase in latency”.
On to `Clc1cccc(N2CCN(CCCSc3nnnn3-c3ccccc3)CC2)c1` [Example 12, 1-[3-(1-Phenyl-1H-tetrazol-5-ylsulfanyl)propyl]-4-(3-chlorophenyl)piperazine], for which the figures for the inhibition at 0.1 µM at 5HT1A receptor, on 5HT1D receptor and at 5HT7 receptor were 75%, 6% and 43%, respectively. In the test with C57 male mice [2], the “latency in CAR (memory)” value is listed as “statistically significant decrease in latency”.
